{
  "source": "patent US6525089B1",
  "about": "“Pharmaceutical composition containing decursin” (Binex Co., Ltd., priority 1998, dated 2003)",
  "key": {"U-937 cells [1]": {"system": "U-937 cells", "assay": "Phagocytosis test", "format": "cell-based, human", "conditions": "1 × 10^−7M, incubated 4 days", "description": "(§1) U-937 cells were plated on a cell culture dish at a concentration of 2×10^5 cells/ml in a medium containing 10^−7M decursin and incubated in a 5% CO2 incubator at 37° C.\nIn the phagocytosis test, 10^6 cells were well stirred and pelleted by centrifugation at 2000 rpm for 5 minutes. 1 ml of 0.2% serum free medium solution in polystyrene particle were added to the pellets, swayed and incubated at 37° C. for 4 hours. After being washed with phosphate buffered saline (PBS) three times, cell pellets were harvested and then about 200 μl of DPBS was added. The solution was lightly swayed and checked under a microscope to observe a minimum number of 200 cells. The number of cells containing the particles was calculated by percentage.\nThe results of phagocytosis test designed to assess the functional change according to differentiation of U-937 cells was shown in the following Table 8."}, "U-937 cells [2]": {"system": "U-937 cells", "assay": "Esterase activity test: naphthol AS-D chloroacetate esterase", "format": "cell-based, human", "conditions": "percentage of cells showing activity", "description": "To determine naphthol AS-D chloroacetate esterase activity, the cultured solution of U-937 cells was pelleted by centrifugation at 2000 rpm for 5 minutes, followed by the addition of 100 μl PBS to prepare a cell-concentrated solution. A drop of the cell solution was put on a slide glass and dried for more than 1 hour. Then 40 ml of deionized water was preheated at 37° C. 1 ml of […] solution was mixed with 1 ml of Fast Red Violet LB base solution and left for 2 minutes. The mixture was added to 40 ml of preheated deionized water. After the addition of 5 ml of TRIZMAL TM 6.3) buffer solution (Sigma Co. T-3128) and 1 ml of naphthol AS-D chloroacetate solution, the resulting solution, which was turned to red color was poured on a petri dish. The cells on a slide glass were fixed with citrate-acetone-formaldehyde solution, (CAF solution) at room temperature. The cells were soaked in the previously prepared solution and incubated at 37° C. for 30 minutes at a dark place. The cells were completely washed with deionized water for more than 2 minutes and counterstained with hematoxylin solution for 2 minutes, washed with tap water and dried in the air. After completely dried, the cells were observed under a microscope to calculate the reddish cell numbers by percentage.\n(§2) Thus it was considered that the cells were differentiated into macrophage.like cells by the action of decursin."}, "U-937 cells [3]": {"system": "U-937 cells", "assay": "Growth inhibition test (trypan blue exclusion)", "format": "cell-based, human", "conditions": "4 days (96 hours)", "description": "U-937 cells, optioned from Korea Cell Line Bank, was cultured in RPMI 1640 medium (Sigma Co., R-6504) supplemented with 10% fetal bovine serum (FBS). The medium was exchanged every 5 day by 70%. U-937 cells were inoculated into a cell culture dish at concentration of 2×10^5 cells/ml. Then decursin added into the dish at concentration of 10^−8˜10^−6M, then the cells were cultured for 4 days. Trypan blue exclusion test was performed to determine the number of live cells using a hemacytometer, and the percentage of cancer-cell growth inhibition was calculated. Then, the differentiation was induced by treating with 10^−2M diluted ethanol solution containing various amount of decursin in the medium."}, "U-937 cells [4]": {"system": "U-937 cells", "assay": "Esterase activity test: α-naphthyl acetate esterase", "format": "cell-based, human", "conditions": "percentage of cells showing activity", "description": "To determine α-naphthyl acetate esterase activity in the esterase activity test, the cultured solution of U-937 cells was pelleted by centrifugation at 2000 rpm for 5 minutes, followed by the addition of 100 μl PBS to prepare a cell-concentrated solution. A drop of the cell solution was put on a slide glass and dried for more than 1 hour. Then 40 ml of deionized water was preheated at 37° C. 1 ml of […] solution was mixed with 1 ml of Fast Blue BB base solution and left for 2 minutes. The mixture, being turned to yellow color with thick brown, was added to 40 ml of the preheated deionized water. After the addition of 5 ml of TRIZMAL TM 7.6 buffer solution (Sigma Co. 870-2) and 1 ml of α-naphthyl acetate solution, the resulting solution, which was turned to green color, was poured into a petri dish. The cells on a slide glass were fixed with citrate-acetone-formaldehyde solution (CAF solution) at room temperature. The cells were soaked in the previously prepared solution and incubated at 37° C. for 30 minutes at a dark place. The cells were completely washed with deionized water for more than 2 minutes and counterstained with hematoxylin solution for 2 minutes, washed with tap water and dried in the air. After completely dried, the cells were observed under a microscope to determine the blackish cell numbers.\nas §2"}, "U-937 cells [5]": {"system": "U-937 cells", "assay": "NBT reduction test", "format": "cell-based, human", "conditions": "1 × 10^−7M, incubated 4 days", "description": "as §1\nIn the nitrobluetetrazolium (NBT) reduction test, cell solution (about 1×10^6 cells/ml) was well stirred and pelleted by centrifugation at 2000 rpm for 5 minutes. The pellets were suspended in 0.5 ml of medium, followed by the addition of a mixing solution (0.5 ml) containing 10^−6M formyl-methionine leucine phenylalanine (fMLP) and NBT 1.0 mg/DPBSml (1:9). The mixture was incubated at 37° C. for 30 minutes. The reaction was stopped in ice bath and centrifuged at 2000 rpm for 5 minutes. The supernatant was removed and then 200 μl of DPBS was added. The solution was lightly swayed and checked under a microscope to observe a minimum number of 200 cells. The number of NBT (+) cells was calculated by percentage.\nThe differentiation was investigated by using the fact that the differentiated leukocyte cells may generate superoxide anion by stimulation. […] The cultured mixture, which was reacted with superoxide, was reduced to form a precipitate. Then NBT was added to the precipitate (Table 7)."}, "ICR mice [6]": {"system": "ICR mice", "assay": "BUN and MDA in blood and MDA in renal tissue, alloxan-treated mice", "format": "in vivo", "conditions": "alloxan 75 mg/kg i.v., saline for 10 days", "description": "(§3) 2 days after ICR mice were given alloxan (75 mg/kg, i.v.), their glucose levels at fasting were measured to select high-glucose mice. The high-glucose mice were divided into two groups; physiological saline solution was given to one group, while decursin was orally administered to the other group at a dose of 50 mg/kg for 10 days. The alloxan-free group was also orally given physiological saline solution for 10 days. The body weighs were checked periodically, together with urinary tests. To isolate their sera and kidney, mice were slightly anesthetized with ether and their abdomens were dissected. The blood samples were collected from heart to isolate the sera. The kidney was perfused with 0.9% NaCl and isolated after removal of the blood. Then the weight of right kidney was measured. Further, to measure the protein amount from the kidney tissues, these tissues were assayed according to the Bradford method using Bio-Rad protein assay kit in the presence of bovine serum albumin as a reference standard. To measure the MDA in the kidney tissues, 0.4 ml of 10% sodium dodecylsulfate was added to 0.5 ml of 10% kidney-tissue homogenization solution and left in water bath at 37° C. for 30 minutes; With the subsequent addition of 0.1N-HCl (2 ml) and 0.67% TBA (1 ml), the mixture was voltexed and left in boiling water bath for 30 minutes. The mixture was further cooled in ice bath for 2˜3 minutes to stop the reaction. Then 2 ml of n-butanol was added to the mixture, stirred well and centrifuged at 3000 rpm for 10 minutes. The supernatant was collected to measure the absorbance at 532 nm. 10 μg/ml tetraethoxypropane (TEP) was employed as a reference standard. To measure the MDA in sera, 0.8% thiobarbituric acid (TBA) was added to 0.5 ml of sera and left in boiling water bath for 30 minutes. The mixture was further cooled in ice bath for 2˜3 minutes to stop the reaction. The supernatant was collected to measure the absorbance at 532 nm. 10 μg/ml TEP was employed as a reference standard.\nMice were orally given decursin at a dose of 50 mg/kg for 10 days continuously. Then various parameters such as BUN and MDA in the blood as a marker of renal failure were measured, together with urinary test. When […] (table 4), the BUN value of single alloxan-treated group, 17.4±3.7 mg/dl was recovered to the normal level (4.8±0.6 mg/dl) by the treatment of decursin. The MDA value of single alloxan-treated group, 0.51±0.07, was reduced to 0.36±0.03 by the treatment of decursin, which was similar to a normal control group. Thus it was noted that the damage in the kidney was completely recovered. Since the reduction of both MDA values in the blood and kidney tissues may be clinically reasonable and desirable, the MDA value in the kidney tissues was measured. As a result, the MDA value in the kidney tissues of a single alloxan-treated group, 13.24±5.93, was reduced to 5.63±0.99 by the treatment of decursin, which was lower than that of normal control group (8.44±1.01)."}, "ICR mice [7]": {"system": "ICR mice", "assay": "Urinary test, alloxan-treated mice", "format": "in vivo", "conditions": "Alloxan group", "description": "as §3"}},
  "data": [
    {"smiles": "C=C1CC[C@H](O)C/C1=C/C=C1\\CCC[C@]2(C)[C@@H]([C@H](C)CCCC(C)C)CC[C@@H]12", "note": "[Vitamin D3, reference compound]", "values": [
      {"measurement": "Phagocytosis test: cells showing phagocytosis activity", "setting": "U-937 cells [1]", "result": "25.8 ± 1.3", "unit": "%"},
      {"measurement": "Phagocytosis test: cells showing phagocytosis activity", "setting": "U-937 cells [1]; listed as vitamin D3", "result": 25.8, "unit": "%"},
      {"measurement": "Naphtol AS-D chloroacetate esterase Activity (%)", "setting": "U-937 cells [2]", "result": 0.0, "unit": "%"},
      {"measurement": "Growth inhibition rate (%)", "setting": "U-937 cells [3]; 1 × 10^−6M", "result": "54.0 ± 6.7", "unit": "%"},
      {"measurement": "Growth inhibition rate (%)", "setting": "U-937 cells [3]; 1 × 10^−7M", "result": "42.5 ± 6.4", "unit": "%"},
      {"measurement": "Growth inhibition rate (%)", "setting": "U-937 cells [3]; 1 × 10^−8M", "result": "26.0 ± 5.7", "unit": "%"},
      {"measurement": "Growth inhibition rate (%)", "setting": "U-937 cells [3]; 5 × 10^−7M", "result": "48.0 ± 6.0", "unit": "%"},
      {"measurement": "Growth inhibition rate (%)", "setting": "U-937 cells [3]; 5 × 10^−8M", "result": "33.5 ± 0.7", "unit": "%"},
      {"measurement": "α-Naphtylacetate esterase Activity (%)", "setting": "U-937 cells [4]", "result": "79.3 ± 4.5", "unit": "%"},
      {"measurement": "α-Naphtylacetate esterase Activity (%)", "setting": "U-937 cells [4]; listed as vitamin D3", "result": 80, "unit": "%"},
      {"measurement": "NBT reduction test: positive cells", "setting": "U-937 cells [5]", "result": "39.0 ± 2.1", "unit": "%"},
      {"measurement": "NBT reduction test: positive cells", "setting": "U-937 cells [5]; listed as vitamin D3", "result": 39, "unit": "%"}
    ]},
    {"smiles": "O=C1NC(=O)C(=O)C(=O)N1", "note": "[alloxan]", "values": [
      {"measurement": "BUN", "setting": "ICR mice [6]", "result": "17.4 ± 3.7", "unit": "mg/dL"},
      {"measurement": "MDA in blood", "setting": "ICR mice [6]", "result": "0.51 ± 0.07", "unit": "µg/mL"},
      {"measurement": "MDA in renal tissue", "setting": "ICR mice [6]", "result": "13.24 ± 5.93", "unit": "µg/g"},
      {"measurement": "Urinary test Bilirubin: count in category +", "setting": "ICR mice [7]", "result": 2},
      {"measurement": "Urinary test Bilirubin: count in category ++", "setting": "ICR mice [7]", "result": 6},
      {"measurement": "Urinary test Bilirubin: count in category +++", "setting": "ICR mice [7]", "result": 2},
      {"measurement": "Urinary test Glucose: count in category ++", "setting": "ICR mice [7]", "result": 10},
      {"measurement": "Urinary test Ketone: count in category ±", "setting": "ICR mice [7]", "result": 3},
      {"measurement": "Urinary test Ketone: count in category −", "setting": "ICR mice [7]", "result": 7},
      {"measurement": "Urinary test Nitrite: count in category +", "setting": "ICR mice [7]", "result": 4},
      {"measurement": "Urinary test Nitrite: count in category −", "setting": "ICR mice [7]", "result": 6},
      {"measurement": "Urinary test Occult blood: count in category ++", "setting": "ICR mice [7]", "result": 2},
      {"measurement": "Urinary test Occult blood: count in category +++", "setting": "ICR mice [7]", "result": 8},
      {"measurement": "Urinary test Protein: count in category −", "setting": "ICR mice [7]", "result": 10},
      {"measurement": "Urinary test Specific gravity: count in category ++", "setting": "ICR mice [7]", "result": 1},
      {"measurement": "Urinary test Specific gravity: count in category +++", "setting": "ICR mice [7]", "result": 9},
      {"measurement": "Urinary test Urobilinogen: count in category +", "setting": "ICR mice [7]", "result": 10},
      {"measurement": "Urinary test pH: count in category ±", "setting": "ICR mice [7]", "result": 10}
    ]}
  ]
}
